This is an account of results in PubChem BioAssay (NCI).

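The compound was tested at five concentrations on cells cultured in 96-well plates, with a 48-hour exposure period. Abbreviation: GI50, concentration required for 50% inhibition of growth. The concentration for full growth arrest is given as TGI.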

The assay concerns MDA-MB-468 breast. Description: NCI-60 cell line screen, 48 h.
Regarding `CC1=C(C(=O)Nc2ccc3n[nH]c(C)c3c2)C(c2ccc(C(F)(F)F)cc2)CC(=O)N1` (stereo not drawn), the GI50 was 7090 nM and the TGI was over 25000 nM.

With `COc1cc(C(=O)c2c(-c3ccccc3)oc3c(OC)cccc23)cc(OC)c1OC`, the GI50 is 83.9 nM and the TGI is 11100 nM.

`C=C(C)[C@@H]1CC[C@]2(C(=O)N[C@H](CO)Cc3ccccc3)CC[C@]3(C)[C@H](CC[C@@H]4[C@@]5(C)CCCNC(C)(C)[C@@H]5CC[C@]43C)[C@@H]12`: the GI50 was 1520 nM and the TGI turned out to be 3030 nM.

Turning to `[Cl][Sn]([c]1ccccc1)([c]1ccccc1)[c]1ccccc1`, the GI50 was 137 nM and the TGI was found to be 326 nM.

Regarding `CN1CCN(C(=O)C(C)(C)c2ccc(C(=O)Nc3cn4cc(-c5ccncc5)ccc4n3)cc2)CC1`, the GI50 was 162 nM and the TGI stood at 1180 nM.

On to `O=C(Nc1ccc(Cl)cc1)Nc1nc2ccc([N+](=O)[O-])cc2s1`, for which the GI50 is 862 nM and the TGI stood at 2380 nM.

For the compound `O=C1OCC2=C1C(c1cccc(Cl)c1)c1cc3c(cc1N2CCO)OCCO3` (stereo not drawn), the GI50 is 26.5 nM and the TGI is 516 nM.

Take `COc1ccc(CCN2CC=Cn3c2nc2ccccc2c3=O)cc1`: the GI50 was 81.6 nM and the TGI was 11800 nM.

For `O=C1C(Nc2ccc(Cl)cc2)=C(I)C(=O)c2ncccc21`, the GI50 was 1510 nM and the TGI amounted to 3820 nM.

For `COc1cccc(-c2c[nH]c3c(N/N=C/c4ccncc4)ncnc23)c1`, the GI50 is 848 nM and the TGI turned out to be 3890 nM.

Consider `Cc1ccccc1OCC(O)CN1CCN(c2ccc(Cl)cc2)CC1` (stereo not drawn), for which the GI50 is 17400 nM and the TGI worked out at 35400 nM.

On to `Cc1cc(NC(=O)NC(=O)c2ccccc2NC(=O)C(C)N)ccc1Oc1ncc(Br)cn1` (stereo not drawn), for which the GI50 is under 10 nM and the TGI was determined as 28500 nM.

Regarding `Cc1[nH]c2ccccc2c1CCCO`, the GI50 was over 100000 nM and the TGI was over 100000 nM.

As to `Cc1c(Cl)cccc1C(=O)Nc1nc2c(s1)CN(C(=O)c1ccc(C(F)(F)F)cc1)CC2`, the GI50 is 36.5 nM and the TGI is over 35700 nM.

Consider `CN(C)CCN1C(=O)c2c(c3c4ccccc4n4c3c3c2c2ccccc2n3C2CC(O)C(O)C4(C)O2)C1=O` (stereo not drawn), for which the GI50 is 1520 nM and the TGI turned out to be 5650 nM.

For the compound `CCNCCCn1c2c(c3ccc(Cl)cc3c1=O)C(=O)c1cc(OC)cnc1-2`, the GI50 was 249 nM and the TGI came out at 4300 nM.

Take `Cc1cc(NCCCN(C)C)c2ccc3c(ccc4c(NCCCN(C)C)cc(C)nc43)c2n1`: the GI50 is 153 nM and the TGI was found to be 312 nM.

Consider `O=C(Nc1cccc(-n2cc(-c3ccncc3)c(-c3ccc(Cl)c(O)c3)n2)c1)Nc1cc(C(F)(F)F)cc(C(F)(F)F)c1`, for which the GI50 was 264 nM and the TGI was 2650 nM.

As for `COc1ccc(C/C(C)=C(/c2ccc(OCCN3CCCCC3)cc2)c2ccc(OC(=O)NCc3ccccc3)cc2)cc1`, the GI50 is 400 nM and the TGI was determined as 789 nM.

Turning to `Cc1cc(F)ccc1S(=O)(=O)Nc1cc(-c2c(O)ccc3ccccc23)c(O)c2ccccc12`, the GI50 is 1650 nM and the TGI is 3700 nM.

Consider `C#CC#CC#CC#CC#CC#CC#CC#CCC1OCC(COC(=O)O[C@@H](C(=O)O[C@H]2C[C@@]3(O)[C@@H](OC(=O)c4ccccc4)[C@@H]4[C@]5(OC(C)=O)CO[C@@H]5C[C@H](O)[C@@]4(C)C(=O)[C@H](OC(C)=O)C(=C2C)C3(C)C)[C@@H](NC(=O)c2ccccc2)c2ccccc2)O1` (stereo partly drawn), for which the GI50 was 67 nM and the TGI turned out to be 423 nM.

`CC1=C(c2cccc(O)c2)[C@H](c2ccc(OCCN3CC(CF)C3)cc2)Oc2ccc(O)cc21`: the GI50 was 2400 nM and the TGI came out at 6240 nM.

For `COc1ccc2c(c1)NC1=C(C(=O)OC1)C2c1cc(OC)c2c(c1)OCO2` (stereo not drawn), the GI50 was under 15.4 nM and the TGI was found to be 61 nM.

As to `Cc1cc([N+](=O)[O-])c(NS(=O)(=O)c2cccc(C(=O)O)c2)cc1-c1cccnc1`, the GI50 was over 100000 nM and the TGI is over 100000 nM.
